Data set [1] can be described thus: Solubility of the compound. The class given is physicochemical.
Data set [2] is described as follows: Plasma concentration in Sprague-Dawley rat at 5 mg/kg, po after 4 hrs by LC-MS/MS analysis. Further details: dose 5 mg/kg, route oral. The class given is ADME, organism-based.
A short description of data set [3]: Plasma concentration in Sprague-Dawley rat at 5 mg/kg, po after 1 hr by LC-MS/MS analysis. The class given is ADME, organism-based. Also on record: dose 5 mg/kg, route oral.
The nature of data set [4]: Plasma concentration in Sprague-Dawley rat at 5 mg/kg, po after 6 hrs by LC-MS/MS analysis. The class given is ADME, organism-based. Also on record: dose 5 mg/kg, route oral.
Data set [5] can be described thus: Plasma concentration in Sprague-Dawley rat at 5 mg/kg, po after 2 hrs by LC-MS/MS analysis. Also on record: dose 5 mg/kg, route oral. It counts as ADME, organism-based.
A short description of data set [6]: Plasma concentration in Sprague-Dawley rat at 30 mg/kg, po after 4 hrs by LC-MS/MS analysis. The class given is ADME, organism-based. Further details: dose 30 mg/kg, route oral.

Converted amounts (≈) assume the structure as drawn.

What is called solubility is the dissolved amount per volume that the medium holds. A lower solubility goes with a poorly soluble substance. In turn, `O=C(NCc1ccc(Cl)cc1Cl)N1CCC(Oc2ncccn2)CC1` returned a solubility in data set [1] of 174 µg/mL (≈ 456 µM). The same molecule came in with a concentration at 4 h in data set [2] of 1300 nM.
In the case of `O=C(NCc1ccc(Cl)cc1Cl)N1CCC(Oc2ccccc2)CC1`, the solubility in data set [1] came to 3.4 µg/mL (≈ 8.96 µM). The molecule further returned a concentration at 4 h in data set [2] of 100 nM.
Regarding `O=C(O)c1ccc(OC2CCN(C(=O)NCc3ccc(Cl)cc3Cl)CC2)cc1`, in data set [3], the concentration at 1 h came to 1700 nM. The concentration at 4 h in data set [2] was 3800 nM. The concentration at 6 h in data set [4] came to 5430 nM. In data set [5], this molecule yielded a concentration at 2 h of 2660 nM.
In turn, `O=C(Nc1ccc(OC(F)(F)F)cc1)N1CCC(n2cccc2)CC1` yielded a concentration at 4 h in data set [6] of 2800 nM.

Values taken from ChEMBL document CHEMBL1153202, “Optimization of piperidyl-ureas as inhibitors of soluble epoxide hydrolase” (Bioorg Med Chem Lett, 2010).
